Measured values: patent EP3666770A1, “NOVEL HETEROCYCLIC COMPOUNDS AS CDK8/19 INHIBITORS” (Joint Stock Company "Biocad", priority 2017, dated 2019)
Where two headings read alike, the source gives them in different places.

Legend:
[1] = General cytotoxicity test on HepG2 cells; format: cell-based; conditions: human, HepG2 cells; 72 h incubation; 200 to 0.78 µM; average values of several tests; read-out: Hep-G2 CC50, mkM
Method: Cell viability was assessed using the above method. Table 6. […] The results are presented as average values of activity obtained in several tests.

[2] = Chemical stability in simulated gastric fluid (SGF); format: physicochemical; conditions: SGF without enzymes, pH=1,4; 10 µm; 2 hours at 37°C; substance amount in % after thermostatting
Method: (§1) Chemical stability of the compounds described herein was determined in simulated gastric fluid and human blood plasma.
SGF concentrate without enzymes, pH=1,4 (Sigma Ireland, cat#01651) was used as simulated gastric fluid. Initial candidate solution (10 mM in DMSO) was diluted with an SGF working solution to a concentration of […] (test solution). The test solution was incubated in a dry block thermostat for 2 hours at 37°C. HPLC with Agilent 1200 liquid chromatography system (Agilent, USA) was employed to determine peak areas of the compounds in test samples, said peak areas corresponding to the initial test time (prior to incubation) and the final test time (after incubation in a dry block thermostat for 2 hours at 37°C). Chromatographic analysis was performed in a gradient elution regime with a flow rate of 1 mL/min. Substance amount in % in a sample after thermostatting was determined.

[3] = Chemical stability in human blood plasma; format: in vitro ADME; conditions: pooled human blood plasma; 10 µM; 4 hours at 37°C; substance amount in % after thermostatting
Method: as §1
Determination of stability in human blood plasma was performed using pooled human blood plasma taken from ten healthy donors. The initial candidate solution (10 mM in DMSO) was diluted with pooled blood plasma to a concentration of […] (test solution). The test solution was incubated in a dry block thermostat for 4 hours at 37°C. HPLC with Agilent 1200 liquid chromatography system (Agilent, USA) was employed to determine peak areas of the compounds in test samples, said peak areas corresponding to the initial test time (prior to incubation) and the final test time (after incubation in a dry block thermostat for 4 hours at 37°C), proteins were preliminarily precipitated with acetonitrile. Chromatographic analysis was performed in a gradient elution regime with a flow rate of 1 mL/min. Substance amount in % in a sample after thermostatting was determined.

[4] = Enzyme stability in human liver microsomes; format: in vitro ADME; conditions: pH 7.4; 0,5 mg/mL pooled human liver microsomes; 10 µM compound; 37°C; pH=7,4
Method: Measuring of candidates' enzyme stability enabled estimation of the stability of the present compounds towards the action of enzymes in liver microsomes.
Enzyme degradation rate was measured by incubating the reaction mixture in a dry block thermostat at 37°C, said reaction mixture comprising 0,5 mg/mL of pooled human liver microsomes (XenoTech, USA, cat#H2620), 10 µM compound, 2 mM β-nicotinamide adenine dinucleotide (Carbosynth, UK, cat#NN10871) and 4 mM magnesium chloride in 0,1 M sodium-phosphate buffer, pH=7,4. The reaction was quenched with acetonitrile (100 µL of acetonitrile / 100 µL of the reaction mixture). After quenching, the samples were centrifuged at 10000 rpm for 10 minutes. Supernatant fluid was tested by chromatographic technique using Agilent1200 (Agilent, USA). Chromatographic analysis was performed in a gradient elution regime with a flow rate of 1 mL/min. A graph of the logarithm of substance's peak area as a function of time was made. The dependent factor of the line corresponded to the elimination rate constant K based on which the drug's half-life t1/2 and degradation rate CLint were calculated: Elimination rate constant (k) = (−gradient) [formula] [formula] V(μL/mg) = (volume of incubation(μL))/(protein in the incubation(mg)) [formula] [formula]

MV4-11 = experiment: Cell-based antiproliferative test (AlamarBlue), MV4-11; conditions: Homo sapiens, MV4-11, 120 h, read-out: MV-4-11 IC50, mkM
Method: Antiproliferative activity of CDK8 inhibitors according to the present invention was measured in a cell-based test on continuous cell cultures MV4-11 (biphenotypic myelomonocytic leukemia, ATCC® CRL-9591™), KG-1 (acute myeloid leukemia, ATCC® CCL-246™), HL-60 (acute promyelocytic leukemia, ATCC® CCL-240™) using a vital stain AlamarBlue (ThermoFisher, #DAL1100). The cells were grown in RPMI-1640 (PanEco, #C330p) medium with addition of 10% FBS (Gibco, #16140-071); washed and resuspended in culture medium with 10% FBS (Gibco, #16140-071) in 96-well culture plates (Corning, #3599) with ≈ 10 ×10^3 cells in […] of medium per well. The compounds in question were dissolved in DMSO and diluted with a medium with 10% FBS (Gibco, #16140-071) to a final concentration ranging form 0 to 100 µM. […] of diluted compounds were then added to each well (final DMSO concentration was less than 1%) and incubated under 5% CO2 atmosphere at 37°C for 120 h. After incubating, 15 µL of AlamarBlue (ThermoFisher, #DAL1100) reagent was added per well, contents of plates were mixed in an orbital shaker (Biosan, Latvia) and further incubated for 3-5 h at 37°C under 5% CO2 atmosphere. Number of living cells was estimated using a microplate spectrophotometer (Tecan Infinite M200Pro, Switzerland) measuring fluorescent signal at the excitation wavelength (λEx) of 540 nm and emission wavelength (λEm) of 590 nm.
IC50 was calculated using Magellan 7.2 software (Tecan, Switzerland) approximating experimental points by four-parameter logistic model with the optimization by Levenberg-Marquardt (table 7, table 7).

[5] = 120 h incubation, average values of several tests

Row | Compound | CC50 at 72 h [1] | Stability in SGF, % [2] | Stability in blood plasma, % [3] | microsomal CLint at 10 µM [4] | IC50 (MV4-11; [5]) | IC50 (MV4-11)
1 | O=C(C1CN(c2ccc3ncn(-c4ccc(-c5cn[nH]c5)cc4)c3c2)C1)N1CCOCC1 [CDK8-1-4, (1-(1-(4-(1H-pyrazol-4-yl)phenyl)-1H-benzo[d]imidazol-6-yl)azetidin-3-yl) (morpholino)methanone] | > 100 µM | 98.2% | 100% | 18.8 µL/min/mg | 0.7 µM | –
2 | CN1CCN(Cc2ccc(-c3ccnc4ccc(N5CCC(C)(C(N)=O)CC5)cc34)cc2)CC1 [CDK8-6-3, 4-Methyl-1-(4-(4-((4-methylpiperazin-1-yl)methyl)phenyl)quinolin-6-yl) piperidine-4-carboxamide] | > 60 µM | 100% | – | 18.6 µL/min/mg | 3.18 µM | –
3 | CN1CCN(C(=O)c2cnc3cncc(-c4ccc(-c5cnn(C)c5)cc4)c3c2)CC1 [CDK8-3-30, (4-Methylpiperazin-1-yl)(5-(4-(1-methyl-1H-pyrazol-4-yl)phenyl)-1,7-naphthyridin-3-yl)methanone] | 100 µM | – | – | – | 0.412 µM | –
4 | Cn1cc(-c2ccc(-c3cncc4ncc(N5CC(C(=O)N6CCOCC6)C5)cc34)cc2)cn1 [CDK8-3-9, (1-(5-(4-(1-Methyl-1H-pyrazol-4-yl)phenyl)-1,7-naphthyridin-3-yl)azetidin-3-yl) (morpholino)methanone] | > 20 µM | 100% | 100% | 8.8 µL/min/mg | 10 µM | –
5 | CN1CCN(C(=O)c2cnc3cncc(-c4ccc(N(C)C)cc4)c3c2)CC1 [CDK8-3-8, (5-(4-(Dimethylamino)phenyl)-1,7-naphthyridin-3-yl)(4-methylpiperazin-1-yl) methanone] | > 200 µM | 95.4% | 98% | 18 µL/min/mg | 7.52 µM | –
6 | Cn1cc(-c2ccc(-n3cnc4ccc(N5CC(C(=O)N6CCOCC6)C5)c(F)c43)cc2)cn1 [CDK8-1-20, (1-(1-(4-(1-methyl-1H-pyrazol-4-yl)phenyl)-7-fluoro-1H-benzo[d]imidazol-6-yl)azetidin-3-yl) (morpholino)methanone] | > 200 µM | 99.4% | 100% | 12.4 µL/min/mg | > 1 µM | –
7 | COc1cc(-c2cnc3[nH]cc(C(=O)c4cccnc4)c3c2)ccc1N(C)C [CDK8-4-25, (5-(4-(Dimethylamino)-3-methoxyphenyl)-1H-pyrrolo[2,3-b]pyridin-3-yl)(pyridin-3-yl)methanone] | 4.7 µM | 100% | 100% | 22.2 µL/min/mg | 0.05 µM | –
8 | COc1ccc(-n2cnc3ccc(N4CC(C(=O)N5CCOCC5)C4)cc32)cc1 [CDK8-1-12, (1-(1-(4-Methoxyphenyl)-1H-benzo[d]imidazol-6-yl)azetidin-3-yl)(morpholino) methanone] | > 100 µM | 98.1% | 98% | 3 µL/min/mg | 3.38 µM | –
9 | COC1CN(C(=O)c2ccc3nccc(-c4ccc(-c5cn[nH]c5)cc4)c3c2)C1 [CDK8-6-4, (4-(4-(1H-Pyrazol-4-yl)phenyl)quinolin-6-yl)(3-methoxyazetidin-1-yl) methanone] | 66.6 µM | 100% | 100% | 16.2 µL/min/mg | 7.79 µM | –
10 | COCCOC(=O)c1cnc2cncc(-c3ccc(-c4cnn(C)c4)cc3)c2c1 [CDK8_3_28, 2-Methoxyethyl-5-[4-(methyl-1-H-pyrazol-4-yl)phenyl]-1,7-naphthyridine-3-carboxylate] | 48.4 µM | – | – | – | 0.871 µM | –
11 | COC(=O)c1ccc(-n2cnc3c(F)cc(N4CC(C(=O)Nc5ccccc5)C4)cc32)cc1 [CDK8-1-7E, Methyl 4-(6-(3-(phenylcarbamoyl)azetidin-1-yl)-4-fluoro-1H-benzo[d]imidazol-1-yl)benzoate] | > 100 µM | – | – | – | > 2.5 µM | –
12 | Cn1cc(-c2ccc(-c3cncc4ncc(C(=O)N5CCC[C@@H](O)C5)cc34)cc2)cn1 [CDK8-3-20, (R)-3-(Hydroxypiperidin-1-yl)(5-(4-(1-methyl-1H-pyrazol-4-yl)phenyl)-1,7-naphthyridin-3-yl)methanone] | – | – | – | – | – | 5.04 µM
13 | CN(C)c1ccc(-c2cnc3[nH]cc(C(=O)c4cccnc4)c3c2)c(C#N)c1 [CDK8-4-26, 5-(Dimethylamino)-2-(3-nicotinoyl-1H-pyrrolo[2,3-b]pyridin-5-yl)benzonitrile] | > 100 µM | 100% | 100% | 17.6 µL/min/mg | 1.28 µM | –
14 | N=C(c1ccnc2ccc(-c3ccc(-c4cn[nH]c4)cc3)cc12)N1CCCCC1 [CDK8-5-4i, (6-(4-(1H-Pyrazol-4-yl)phenyl)quinolin-4-yl) (piperidin-1-yl)methanimine] | > 100 µM | 98.8% | 100% | 19 µL/min/mg | 4.32 µM | –
15 | Cn1cc(-c2ccc(-c3cncc4ncc(C(=O)N5CCOCC5)cc34)cc2)cn1 [CDK8-3-33, (5-(4-(1-Methyl-1H-pyrazol-4-yl)phenyl)-1,7-naphthyridin-3-yl)(morpholino)methanone] | 100 µM | – | – | – | 2.06 µM | –
16 | O=C(c1ccnc2ccc(-c3ccc(-c4cn[nH]c4)cc3)cc12)N1CCCCC1 [CDK8-5-4, (6-(4-(1H-Pyrazol-4-yl)phenyl)quinolin-4-yl) (piperidin-1-yl)methanone] | 66.1 µM | 99.9% | 100% | 37 µL/min/mg | 9.56 µM | –
17 | Cn1cc(-c2ccc(-c3cncc4ncc(C(=O)N5CC[C@@H](O)C5)cc34)cc2)cn1 [CDK8-3-4, (R)-(3-Hydroxypyrrolidin-1-yl) (5-(4-(1-methyl-1H-pyrazol-4-yl)phenyl)-1,7-naphthyridin-3-yl)methanone] | 76.4 µM | 100% | 100% | – | 7.51 µM | –
18 | CN(C)CCN(C)C(=O)c1cnc2cncc(-c3ccc(-c4cnn(C)c4)cc3)c2c1 [CDK8-3-35, N-(2-(Dimethylamino)ethyl)-N-methyl-5-(4-(1-methyl-1H-pyrazol-4-yl)phenyl)-1,7-naphthyridine-3-carboxamide] | 77.4 µM | – | – | – | 1.84 µM | –
19 | COCCNC(=O)c1cnc2cncc(-c3ccc(-n4ccnc4)cc3)c2c1 [CDK8-3-41] | 200 µM | – | – | – | 0.572 µM | –
